Key:
Assay in all cases: biochemical
Set-up in all cases: DiscoveRx KINOMEscan competition binding, percent of DMSO control signal at 100 nM
Settings in all cases: read-out: Fig. 4a / Percent Control / Compound 1; percent of DMSO control, competition binding
VPS34 = molecular target: T1, VPS34 (Homo sapiens, UniProt Q8NEB9)
T1 construct: gene PIK3C3

RIPK1 = RIPK1 (Homo sapiens, UniProt Q13546)
[1] = molecular target: T2, JAK1(JH1domain-catalytic) (Homo sapiens, UniProt P23458)
T2 construct: JH1domain-catalytic
T2 sequence (P23458 whole entry): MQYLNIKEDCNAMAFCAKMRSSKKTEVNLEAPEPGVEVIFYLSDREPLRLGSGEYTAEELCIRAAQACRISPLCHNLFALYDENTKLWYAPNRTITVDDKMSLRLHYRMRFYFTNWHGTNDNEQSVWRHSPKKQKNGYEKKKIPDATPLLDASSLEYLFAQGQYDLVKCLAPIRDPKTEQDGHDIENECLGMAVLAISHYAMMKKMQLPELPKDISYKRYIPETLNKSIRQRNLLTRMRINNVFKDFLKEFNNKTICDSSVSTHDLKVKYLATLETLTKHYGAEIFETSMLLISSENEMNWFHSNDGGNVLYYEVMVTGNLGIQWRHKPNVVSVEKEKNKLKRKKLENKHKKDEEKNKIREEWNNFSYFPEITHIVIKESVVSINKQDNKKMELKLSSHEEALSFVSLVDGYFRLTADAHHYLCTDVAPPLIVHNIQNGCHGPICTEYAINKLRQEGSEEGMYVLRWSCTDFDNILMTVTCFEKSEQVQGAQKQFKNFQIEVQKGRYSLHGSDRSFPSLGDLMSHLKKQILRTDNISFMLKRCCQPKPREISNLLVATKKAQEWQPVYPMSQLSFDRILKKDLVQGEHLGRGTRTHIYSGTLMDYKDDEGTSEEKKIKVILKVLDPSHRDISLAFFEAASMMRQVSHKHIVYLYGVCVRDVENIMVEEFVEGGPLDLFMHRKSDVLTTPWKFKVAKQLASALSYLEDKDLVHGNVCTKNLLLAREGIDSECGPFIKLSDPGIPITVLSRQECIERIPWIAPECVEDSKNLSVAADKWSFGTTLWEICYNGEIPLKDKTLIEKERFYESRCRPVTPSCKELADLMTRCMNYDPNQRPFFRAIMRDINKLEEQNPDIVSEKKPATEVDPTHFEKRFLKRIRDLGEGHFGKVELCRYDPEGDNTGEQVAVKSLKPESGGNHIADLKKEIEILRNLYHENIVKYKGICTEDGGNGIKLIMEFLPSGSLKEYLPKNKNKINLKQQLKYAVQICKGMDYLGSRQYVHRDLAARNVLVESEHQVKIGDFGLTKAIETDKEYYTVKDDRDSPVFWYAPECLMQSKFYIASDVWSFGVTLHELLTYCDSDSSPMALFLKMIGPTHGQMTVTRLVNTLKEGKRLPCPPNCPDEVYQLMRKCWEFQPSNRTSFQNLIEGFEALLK

MYO3B = MYO3B (Homo sapiens, UniProt Q8WXR4)
MYO3B, sequence (Q8WXR4 whole entry): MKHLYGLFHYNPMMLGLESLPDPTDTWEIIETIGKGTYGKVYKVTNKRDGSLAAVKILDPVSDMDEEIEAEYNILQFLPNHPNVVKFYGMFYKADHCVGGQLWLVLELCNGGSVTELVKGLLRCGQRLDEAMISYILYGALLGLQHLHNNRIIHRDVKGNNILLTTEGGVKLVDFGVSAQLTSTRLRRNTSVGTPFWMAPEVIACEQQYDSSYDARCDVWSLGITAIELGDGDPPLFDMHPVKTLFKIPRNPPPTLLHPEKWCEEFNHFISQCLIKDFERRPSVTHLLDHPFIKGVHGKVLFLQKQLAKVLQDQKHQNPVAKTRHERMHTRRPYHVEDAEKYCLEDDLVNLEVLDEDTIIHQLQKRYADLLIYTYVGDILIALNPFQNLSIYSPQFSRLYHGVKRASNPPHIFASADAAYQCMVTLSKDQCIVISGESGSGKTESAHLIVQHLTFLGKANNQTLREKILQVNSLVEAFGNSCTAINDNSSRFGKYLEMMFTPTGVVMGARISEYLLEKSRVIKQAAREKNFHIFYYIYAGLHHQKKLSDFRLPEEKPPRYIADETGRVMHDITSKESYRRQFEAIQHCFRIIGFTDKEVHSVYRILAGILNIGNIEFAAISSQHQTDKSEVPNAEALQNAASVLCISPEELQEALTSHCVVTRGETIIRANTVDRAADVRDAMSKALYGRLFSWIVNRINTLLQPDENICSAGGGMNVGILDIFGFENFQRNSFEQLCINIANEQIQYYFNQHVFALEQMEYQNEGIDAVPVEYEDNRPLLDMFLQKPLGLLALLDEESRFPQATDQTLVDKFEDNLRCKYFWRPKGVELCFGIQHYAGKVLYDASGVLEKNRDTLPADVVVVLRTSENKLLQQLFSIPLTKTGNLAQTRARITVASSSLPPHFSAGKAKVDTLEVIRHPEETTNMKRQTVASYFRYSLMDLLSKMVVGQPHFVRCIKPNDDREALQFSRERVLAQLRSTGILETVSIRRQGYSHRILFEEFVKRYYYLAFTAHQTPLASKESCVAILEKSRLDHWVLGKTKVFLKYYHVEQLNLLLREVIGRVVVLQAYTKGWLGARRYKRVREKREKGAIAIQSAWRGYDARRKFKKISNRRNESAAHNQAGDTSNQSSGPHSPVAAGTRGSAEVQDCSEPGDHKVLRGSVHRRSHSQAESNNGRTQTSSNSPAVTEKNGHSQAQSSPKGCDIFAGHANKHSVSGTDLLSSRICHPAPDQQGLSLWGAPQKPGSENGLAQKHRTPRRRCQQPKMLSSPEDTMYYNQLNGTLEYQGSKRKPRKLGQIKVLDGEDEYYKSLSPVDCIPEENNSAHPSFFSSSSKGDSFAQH

NEK9 = NEK9 (Homo sapiens, UniProt Q8TD19)
NEK9, sequence (Q8TD19 whole entry): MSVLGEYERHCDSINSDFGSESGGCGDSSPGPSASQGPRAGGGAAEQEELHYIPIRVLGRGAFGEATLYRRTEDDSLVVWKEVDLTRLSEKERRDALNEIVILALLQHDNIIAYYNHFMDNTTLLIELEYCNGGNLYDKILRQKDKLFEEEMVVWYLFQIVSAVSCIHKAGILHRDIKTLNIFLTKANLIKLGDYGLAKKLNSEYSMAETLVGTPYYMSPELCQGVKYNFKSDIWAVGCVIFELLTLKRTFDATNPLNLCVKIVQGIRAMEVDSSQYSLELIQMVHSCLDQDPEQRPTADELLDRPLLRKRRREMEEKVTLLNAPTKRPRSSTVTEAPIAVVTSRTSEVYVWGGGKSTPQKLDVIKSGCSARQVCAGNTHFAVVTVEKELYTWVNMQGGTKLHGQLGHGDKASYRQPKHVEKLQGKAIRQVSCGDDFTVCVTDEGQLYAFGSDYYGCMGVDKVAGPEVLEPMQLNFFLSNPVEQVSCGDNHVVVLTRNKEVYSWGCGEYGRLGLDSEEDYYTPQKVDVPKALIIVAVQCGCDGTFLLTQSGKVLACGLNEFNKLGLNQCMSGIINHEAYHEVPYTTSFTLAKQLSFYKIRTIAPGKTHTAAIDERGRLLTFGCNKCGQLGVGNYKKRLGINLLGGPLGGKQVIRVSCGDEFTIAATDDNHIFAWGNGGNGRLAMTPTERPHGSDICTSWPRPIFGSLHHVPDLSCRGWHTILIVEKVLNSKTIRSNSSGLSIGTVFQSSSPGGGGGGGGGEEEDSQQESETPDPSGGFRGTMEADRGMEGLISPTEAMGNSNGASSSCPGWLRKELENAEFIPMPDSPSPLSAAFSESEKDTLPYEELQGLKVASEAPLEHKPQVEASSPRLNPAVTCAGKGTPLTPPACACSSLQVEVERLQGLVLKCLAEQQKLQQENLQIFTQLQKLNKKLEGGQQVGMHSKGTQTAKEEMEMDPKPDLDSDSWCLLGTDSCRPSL

BMPR1A = BMPR1A (Homo sapiens, UniProt P36894)
TGFBR1 = TGFBR1 (Homo sapiens, UniProt P36897)
TYRO3 = TYRO3 (Homo sapiens, UniProt Q06418)
EPHA5 = EPHA5 (Homo sapiens, UniProt P54756)
ADCK4 = molecular target: T3, ADCK4 (Homo sapiens, UniProt Q96D53)
T3 construct: gene COQ8B

RIOK1 = RIOK1 (Homo sapiens, UniProt Q9BRS2)
RIOK1, sequence (Q9BRS2 whole entry): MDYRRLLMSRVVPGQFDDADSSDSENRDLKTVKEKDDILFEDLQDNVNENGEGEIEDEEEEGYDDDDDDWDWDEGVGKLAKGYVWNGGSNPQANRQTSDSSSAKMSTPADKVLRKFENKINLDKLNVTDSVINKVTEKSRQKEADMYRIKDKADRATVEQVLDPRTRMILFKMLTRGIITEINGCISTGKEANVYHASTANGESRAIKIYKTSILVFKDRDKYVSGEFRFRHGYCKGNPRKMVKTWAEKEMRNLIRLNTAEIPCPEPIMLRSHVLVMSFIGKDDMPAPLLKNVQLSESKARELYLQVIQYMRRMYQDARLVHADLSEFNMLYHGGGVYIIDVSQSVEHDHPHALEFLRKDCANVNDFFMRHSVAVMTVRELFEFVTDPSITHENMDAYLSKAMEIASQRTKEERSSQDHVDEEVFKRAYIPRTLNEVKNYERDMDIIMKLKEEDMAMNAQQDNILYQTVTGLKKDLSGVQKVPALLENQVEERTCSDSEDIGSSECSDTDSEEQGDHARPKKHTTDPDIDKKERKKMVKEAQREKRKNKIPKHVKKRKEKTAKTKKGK

[2] = molecular target: T4, TYK2(JH2domain-pseudokinase) (Homo sapiens, UniProt P29597)
T4 construct: JH2domain-pseudokinase

DAPK1 = DAPK1 (Homo sapiens, UniProt P53355)
LATS2 = LATS2 (Homo sapiens, UniProt Q9NRM7)
FLT3(R834Q) = FLT3(R834Q) (Homo sapiens, UniProt P36888, R834Q)
ERK3 = molecular target: T5, ERK3 (Homo sapiens, UniProt Q16659)
T5 construct: gene MAPK6

PRKCE = PRKCE (Homo sapiens, UniProt Q02156)
KIT-autoinhibited = KIT-autoinhibited (Homo sapiens, UniProt P10721)
PAK2 = PAK2 (Homo sapiens, UniProt Q13177)
EPHA1 = EPHA1 (Homo sapiens, UniProt P21709)
AAK1 = AAK1 (Homo sapiens, UniProt Q2M2I8)
SGK = molecular target: T6, SGK (Homo sapiens, UniProt O00141)
T6 construct: gene SGK1
T6 sequence (O00141 whole entry): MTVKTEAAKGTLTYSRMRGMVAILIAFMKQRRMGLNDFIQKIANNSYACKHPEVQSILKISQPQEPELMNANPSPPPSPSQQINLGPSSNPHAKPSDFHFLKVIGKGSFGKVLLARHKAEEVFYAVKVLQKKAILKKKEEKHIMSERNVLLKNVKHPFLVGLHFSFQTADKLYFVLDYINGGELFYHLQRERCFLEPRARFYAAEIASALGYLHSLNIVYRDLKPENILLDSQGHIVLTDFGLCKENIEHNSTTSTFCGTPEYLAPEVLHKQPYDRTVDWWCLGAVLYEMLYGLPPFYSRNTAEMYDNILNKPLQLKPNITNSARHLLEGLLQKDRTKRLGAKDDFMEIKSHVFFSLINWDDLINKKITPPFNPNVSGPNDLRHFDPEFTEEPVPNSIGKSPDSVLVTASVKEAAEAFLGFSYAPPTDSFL

PIP5K2C = molecular target: T7, PIP5K2C (Homo sapiens, UniProt Q8TBX8)
T7 construct: gene PIP4K2C
T7 sequence (Q8TBX8 whole entry): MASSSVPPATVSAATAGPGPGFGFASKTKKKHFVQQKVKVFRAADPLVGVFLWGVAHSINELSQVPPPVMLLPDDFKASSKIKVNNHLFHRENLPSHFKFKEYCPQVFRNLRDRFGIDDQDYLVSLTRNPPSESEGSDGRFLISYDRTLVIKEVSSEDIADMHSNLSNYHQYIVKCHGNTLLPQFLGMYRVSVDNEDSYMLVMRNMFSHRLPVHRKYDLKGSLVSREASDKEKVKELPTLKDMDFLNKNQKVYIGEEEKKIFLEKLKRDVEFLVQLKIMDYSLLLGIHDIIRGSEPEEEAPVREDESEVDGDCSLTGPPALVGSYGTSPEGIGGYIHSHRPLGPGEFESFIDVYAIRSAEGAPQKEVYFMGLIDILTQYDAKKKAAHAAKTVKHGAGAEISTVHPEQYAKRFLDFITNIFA

PIK3CD = PIK3CD (Homo sapiens, UniProt O00329)
IRAK4 = IRAK4 (Homo sapiens, UniProt Q9NWZ3)
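Note: KINOMEscan kinase panel binding assay, signal normalized between DMSO as 100% and a positive control compound as 0%.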

Cc1cnc2nc1Nc1cccc(c1)COCc1cc(ccc1OCCN1CCCC1)N2 [Compound 1] showed a remaining binding at 0.1 µM (VPS34) of 27%, a remaining binding at 0.1 µM (RIPK1) of 93% and a remaining binding at 0.1 µM [1] of 32%. For the same molecule, the remaining binding at 0.1 µM (MYO3B) was 99%, the remaining binding at 0.1 µM (NEK9) was 83% and the remaining binding at 0.1 µM (BMPR1A) was 97%. The remaining binding at 0.1 µM (TGFBR1) was 94%, the remaining binding at 0.1 µM (TYRO3) was 55% and the remaining binding at 0.1 µM (EPHA5) was 100%. It also gave a remaining binding at 0.1 µM (ADCK4) of 61%, a remaining binding at 0.1 µM (RIOK1) of 75% and a remaining binding at 0.1 µM [2] of 64%. For the same molecule, the remaining binding at 0.1 µM (DAPK1) was 94%, the remaining binding at 0.1 µM (LATS2) was 100% and the remaining binding at 0.1 µM (FLT3(R834Q)) was 23%. It also gave a remaining binding at 0.1 µM (ERK3) of 82%, a remaining binding at 0.1 µM (PRKCE) of 98% and a remaining binding at 0.1 µM (KIT-autoinhibited) of 86%. The remaining binding at 0.1 µM (PAK2) was 100%, the remaining binding at 0.1 µM (EPHA1) was 91% and the remaining binding at 0.1 µM (AAK1) was 81%. For the same molecule, the remaining binding at 0.1 µM (SGK) was 75%, the remaining binding at 0.1 µM (PIP5K2C) was 76% and the remaining binding at 0.1 µM (PIK3CD) was 89%. The remaining binding at 0.1 µM (IRAK4) was 72%.

Source: publication PMC10382584, “Macrocyclization of linear molecules by deep learning to facilitate macrocyclic drug candidates discovery” (Nature Communications, 2023)
